Patent US20170283804A1, “ANTISENSE COMPOUNDS AND USES THEREOF” (Ionis Pharmaceuticals, Inc., priority 2014, published 2017)
Oligonucleotides are written 5' to 3', each unit as a sugar letter and its base; * is a phosphorothioate linkage, no mark a phosphodiester; rarer units and linkages stand in square brackets, end groups in braces. Plain capitals give the bases only. e = 2'-O-(2-methoxyethyl) (MOE); k = constrained ethyl (cEt); [5mC] = 5-methylcytosine; d = 2'-deoxy (DNA)

Experiments:
[1] = test system: mouse Scavenger Receptor Class B, Number 1 (SRB-1) transcript; assay: Isis No. 353382 activity in MHT cells with or without bioactive lipid pre-treatment (SRB-1 mRNA, real-time PCR); type: cell-based
Description: Antisense oligonucleotides were synthesized using standard solid phase oligonucleotide synthetic methods. Isis No. 353382 targets the mouse Scavenger Receptor Class B, Number 1 (SRB-1) transcript (GENBANK accession number NM_016741.1, SEQ ID NO: 1). The sequence of Isis No. 353382 is 5′-[…]-3′ (SEQ ID NO: 2). It is a 5-10-5 MOE gapmer, wherein the five nucleosides at the 5′-end and the five nucleosides at the 3′-end comprise 2′-methoxyethyl (MOE) modifications, and the ten middle nucleosides are 2′-deoxynucleosides. All internucleoside linkages are phosphorothioate linkages. The cytosine bases are 5-methylcytosines.
In order to test the effect of pre-treatment with bioactive lipids on Isis No. 353382 activity in vitro, mouse hepatocellular SV40 large T-antigen (MHT) carcinoma cells were treated with 200 nM myriocin or 3 μM FTY-720 was added 2 hours before Isis No. 353382 at the concentrations shown in Tables 1 and 2 below. Cells were lysed 24 hours following oligonucleotide addition, and total RNA was purified. SRB-1 mRNA levels were determined using real-time PCR and RIBOGREEN® RNA quantification reagent (Molecular Probes, Inc. Eugene, Oreg.) according to standard protocols.

[2] = test system: mouse Metastasis associated lung adenocarcinoma transcript 1 (Malat-1); assay: In vivo dose response of Isis No. 556062 with and without FTY-720 pre-treatment (Malat-1 RNA, Example 3); conditions: mice; liver; 1 mg/kg FTY-720 i.p. once a day for 11 days; Isis No. 556062 subcutaneous on day 10
Description: Each treatment group consisted of 4 animals.
Malat-1 RNA levels were determined as described in Example 2. The results are presented in Table 18 as average Malat-1 RNA levels for each treatment group. Results for groups that received Isis No. 556062 alone are relative the group that received only PBS, and results for groups that received Isis No. 556062 and 1 mg/kg FTY-720 are relative to the group that received 1 mg/kg FTY-720 and PBS in place of Isis No. 556062.

[3] = test system: mouse Metastasis associated lung adenocarcinoma transcript 1 (Malat-1); assay: In vivo activity of Isis No. 556062 with and without FTY-720 pre-treatment (Malat-1 RNA in tissues, Example 2); conditions: mice
Description: Isis No. 556062 targets the mouse Metastasis associated lung adenocarcinoma transcript 1 (Malat-1, GENBANK accession number NR_002847.2, SEQ ID NO: 3). The sequence of Isis No. 556062 is 5′-GGCTTAATGCAGCATT-3′ (SEQ ID NO: 4). It is a 3-10-3 (S)-cEt gapmer, wherein the three nucleosides at the 5′-end and the three nucleosides at the 3′-end comprise 2′-O—CH(CH3)-4′ modifications, and the ten middle nucleosides are 2′-deoxynucleosides. All internucleoside linkages are phosphorothioate linkages. The cytosine bases are 5-methylcytosines.
Malat-1 RNA levels were determined using real-time PCR and RIBOGREEN® RNA quantification reagent (Molecular Probes, Inc. Eugene, OR) according to standard protocols. Malat-1 RNA levels were determined relative to total RNA (using Ribogreen), prior to normalization to PBS-treated control. The results are presented in Table 16 as average Malat-1 RNA levels for each treatment group. Results for groups that received Isis No. 556062 alone are relative the group that received only PBS, and results for groups that received Isis No. 556062 and FTY-720 are relative to the group that received 3 mg/kg FTY-720 and PBS in place of Isis No. 556062.

CCCCCCC(=O)CCCCCC/C=C/C[C@@H](O)[C@H](O)[C@@](N)(CO)C(=O)O [myriocin, reference compound]
Effect of pre-treatment on the effect of Isis No. 353382 in vitro ([1]; 200 nM myriocin 2 hours before Isis No. 353382): potentiated the effect of Isis No. 353382

Isis No. 353382: 5-10-5 MOE gapmer 5′-GCTTCAGTCATGACTTCCTT-3′ (SEQ ID NO: 2), all phosphorothioate linkages, 5-methylcytosines; targets mouse SRB-1 transcript (antisense eG*e[5mC]*eT*eT*e[5mC]*dA*dG*dT*d[5mC]*dA*dT*dG*dA*d[5mC]*dT*eT*e[5mC]*e[5mC]*eT*eT)
Average SRB-1 mRNA level in cells receiving 200 nM myriocin ([1]; 0.16 nM Isis No. 353382, 200 nM myriocin added 2 hours before, 24 hours): 73.5 % control | Average SRB-1 mRNA level in cells receiving 3 μM FTY-720 ([1]; 0.16 nM Isis No. 353382, 3 μM FTY-720 added 2 hours before, 24 hours): 85.5 % control | Average SRB-1 mRNA level in cells receiving no pre-treatment ([1]; 0.16 nM Isis No. 353382, 24 hours, no pre-treatment): 96.9 % control | Average SRB-1 mRNA level in cells receiving no pre-treatment ([1]; 0.16 nM Isis No. 353382, no pre-treatment, 24 hours): 91.8 % control | Average SRB-1 mRNA level in cells receiving 200 nM myriocin ([1]; 0.64 nM Isis No. 353382, 200 nM myriocin added 2 hours before, 24 hours): 73.2 % control | Average SRB-1 mRNA level in cells receiving 3 μM FTY-720 ([1]; 0.64 nM Isis No. 353382, 3 μM FTY-720 added 2 hours before, 24 hours): 77.8 % control | Average SRB-1 mRNA level in cells receiving no pre-treatment ([1]; 0.64 nM Isis No. 353382, 24 hours, no pre-treatment): 95.9 % control | Average SRB-1 mRNA level in cells receiving no pre-treatment ([1]; 0.64 nM Isis No. 353382, no pre-treatment, 24 hours): 87.8 % control | Average SRB-1 mRNA level in cells receiving 200 nM myriocin ([1]; 3.2 nM Isis No. 353382, 200 nM myriocin added 2 hours before, 24 hours): 46.8 % control | Average SRB-1 mRNA level in cells receiving 3 μM FTY-720 ([1]; 3.2 nM Isis No. 353382, 3 μM FTY-720 added 2 hours before, 24 hours): 65.9 % control | Average SRB-1 mRNA level in cells receiving no pre-treatment ([1]; 3.2 nM Isis No. 353382, 24 hours, no pre-treatment): 72.2 % control | Average SRB-1 mRNA level in cells receiving no pre-treatment ([1]; 3.2 nM Isis No. 353382, no pre-treatment, 24 hours): 80.9 % control | Average SRB-1 mRNA level in cells receiving 200 nM myriocin ([1]; 16 nM Isis No. 353382, 200 nM myriocin added 2 hours before, 24 hours): 36.1 % control | Average SRB-1 mRNA level in cells receiving 3 μM FTY-720 ([1]; 16 nM Isis No. 353382, 3 μM FTY-720 added 2 hours before, 24 hours): 46.5 % control | Average SRB-1 mRNA level in cells receiving no pre-treatment ([1]; 16 nM Isis No. 353382, 24 hours, no pre-treatment): 46.3 % control | Average SRB-1 mRNA level in cells receiving no pre-treatment ([1]; 16 nM Isis No. 353382, no pre-treatment, 24 hours): 74.3 % control | Average SRB-1 mRNA level in cells receiving 200 nM myriocin ([1]; 80 nM Isis No. 353382, 200 nM myriocin added 2 hours before, 24 hours): 27.2 % control | Average SRB-1 mRNA level in cells receiving 3 μM FTY-720 ([1]; 80 nM Isis No. 353382, 3 μM FTY-720 added 2 hours before, 24 hours): 27.1 % control | Average SRB-1 mRNA level in cells receiving no pre-treatment ([1]; 80 nM Isis No. 353382, 24 hours, no pre-treatment): 32.3 % control | Average SRB-1 mRNA level in cells receiving no pre-treatment ([1]; 80 nM Isis No. 353382, no pre-treatment, 24 hours): 53.5 % control | Average SRB-1 mRNA level in cells receiving 200 nM myriocin ([1]; 400 nM Isis No. 353382, 200 nM myriocin added 2 hours before, 24 hours): 23.5 % control | Average SRB-1 mRNA level in cells receiving 3 μM FTY-720 ([1]; 400 nM Isis No. 353382, 3 μM FTY-720 added 2 hours before, 24 hours): 23.6 % control | Average SRB-1 mRNA level in cells receiving no pre-treatment ([1]; 400 nM Isis No. 353382, 24 hours, no pre-treatment): 26.8 % control | Average SRB-1 mRNA level in cells receiving no pre-treatment ([1]; 400 nM Isis No. 353382, no pre-treatment, 24 hours): 52.2 % control | Average SRB-1 mRNA level in cells receiving 200 nM myriocin ([1]; 2,000 nM Isis No. 353382, 200 nM myriocin added 2 hours before, 24 hours): 19.6 % control | Average SRB-1 mRNA level in cells receiving 3 μM FTY-720 ([1]; 2,000 nM Isis No. 353382, 3 μM FTY-720 added 2 hours before, 24 hours): 16.8 % control | Average SRB-1 mRNA level in cells receiving no pre-treatment ([1]; 2,000 nM Isis No. 353382, 24 hours, no pre-treatment): 22.4 % control | Average SRB-1 mRNA level in cells receiving no pre-treatment ([1]; 2,000 nM Isis No. 353382, no pre-treatment, 24 hours): 44.9 % control | Average SRB-1 mRNA level in cells receiving 200 nM myriocin ([1]; 10,000 nM Isis No. 353382, 200 nM myriocin added 2 hours before, 24 hours): 15.6 % control | Average SRB-1 mRNA level in cells receiving 3 μM FTY-720 ([1]; 10,000 nM Isis No. 353382, 3 μM FTY-720 added 2 hours before, 24 hours): 12.1 % control | Average SRB-1 mRNA level in cells receiving no pre-treatment ([1]; 10,000 nM Isis No. 353382, 24 hours, no pre-treatment): 16.6 % control | Average SRB-1 mRNA level in cells receiving no pre-treatment ([1]; 10,000 nM Isis No. 353382, no pre-treatment, 24 hours): 36.0 % control

CCCCCCCCc1ccc(CCC(N)(CO)CO)cc1 [FTY-720, 2-amino-2-[2-(4-octylphenyl)ethyl]propane-1,3-diol, reference compound]
Effect of pre-treatment on the effect of Isis No. 556062 in vivo [2]: potentiated the effect of Isis No. 556062 | Effect of pre-treatment on the effect of Isis No. 556062 in vivo ([3]; liver and fat, FTY-720 0.3, 1 or 3 mg/kg i.p. once a day for 11 days, Isis No. 556062 i.p. on day 10): potentiated the effect of Isis No. 556062 | Effect of pre-treatment on the effect of Isis No. 353382 in vitro ([1]; 3 μM FTY-720 2 hours before Isis No. 353382): potentiated the effect of Isis No. 353382

Isis No. 556062: 3-10-3 (S)-cEt gapmer 5′-GGCTTAATGCAGCATT-3′ (SEQ ID NO: 4), all phosphorothioate linkages, 5-methylcytosines; targets mouse Malat-1 (antisense kG*kG*k[5mC]*dT*dT*dA*dA*dT*dG*d[5mC]*dA*dG*d[5mC]*kA*kT*kT)
Average Malat-1 RNA ([3]; Fat, 2 mg/kg Isis No. 556062 i.p., 0 mg/kg FTY-720): 89 % control | Average Malat-1 RNA ([3]; Fat, 2 mg/kg Isis No. 556062 i.p., 0.3 mg/kg FTY-720 i.p. daily): 54 % control | Average Malat-1 RNA ([3]; Fat, 2 mg/kg Isis No. 556062 i.p., 1 mg/kg FTY-720 i.p. daily): 69 % control | Average Malat-1 RNA ([3]; Fat, 2 mg/kg Isis No. 556062 i.p., 3 mg/kg FTY-720 i.p. daily): 45 % control | Average Malat-1 RNA ([3]; Fat, 10 mg/kg Isis No. 556062 i.p., 0 mg/kg FTY-720): 63 % control | Average Malat-1 RNA ([3]; Fat, 10 mg/kg Isis No. 556062 i.p., 0.3 mg/kg FTY-720 i.p. daily): 39 % control | Average Malat-1 RNA ([3]; Fat, 10 mg/kg Isis No. 556062 i.p., 1 mg/kg FTY-720 i.p. daily): 32 % control | Average Malat-1 RNA ([3]; Fat, 10 mg/kg Isis No. 556062 i.p., 3 mg/kg FTY-720 i.p. daily): 39 % control | Average Malat-1 RNA ([3]; Liver, 2 mg/kg Isis No. 556062 i.p., 0 mg/kg FTY-720): 36 % control | Average Malat-1 RNA ([3]; Liver, 2 mg/kg Isis No. 556062 i.p., 0.3 mg/kg FTY-720 i.p. daily): 30 % control | Average Malat-1 RNA ([3]; Liver, 2 mg/kg Isis No. 556062 i.p., 1 mg/kg FTY-720 i.p. daily): 23 % control | Average Malat-1 RNA ([3]; Liver, 2 mg/kg Isis No. 556062 i.p., 3 mg/kg FTY-720 i.p. daily): 24 % control | Average Malat-1 RNA ([3]; Liver, 10 mg/kg Isis No. 556062 i.p., 0 mg/kg FTY-720): 12 % control | Average Malat-1 RNA ([3]; Liver, 10 mg/kg Isis No. 556062 i.p., 0.3 mg/kg FTY-720 i.p. daily): 9 % control | Average Malat-1 RNA ([3]; Liver, 10 mg/kg Isis No. 556062 i.p., 1 mg/kg FTY-720 i.p. daily): 7 % control | Average Malat-1 RNA ([3]; Liver, 10 mg/kg Isis No. 556062 i.p., 3 mg/kg FTY-720 i.p. daily): 10 % control
